Key:
[1] = tested on: CD206 expressing macrophages; experiment: Apoptosis induction (Annexin-V) in MOs and KS tumor tissue; assay type: cell-based
Protocol: (§1) CD206 targeting assays were conducted using both in vitro monocyte-derived CD206+ macrophages (MOs) and ex vivo fresh Kaposi Sarcoma (KS) tumor tissue (provided by the AIDS and Cancer Specimen Resource [ACSR]). Tilmanocept-Cy3 with/without a chemo-therapeutic agent (CTA) attached (tilmanocept-Cy3-CTA or tilmanocept-Cy3) interactions with cellular and tumor targets were tracked by flow cytometry and immuno-histochemistry to evaluate Cy3-tilmanocept uptake and targeting capability for delivery of drug into KS tumor cells and TAMs.

[2] = tested on: luciferase-expressing M tuberculosis H37Rv strain (M.tb-Lux); experiment: Anti-bacterial activity against M.tb in human macrophages (luminescence); assay type: cell-based
DC-SIGN (CD209) = DC-SIGN (CD209) (Homo sapiens, UniProt Q9NNX6); details: AF488-labeled tilmanocept, anti-DC-SIGN Ab staining
Protocol: The tissue sections were first deparaffinized with xylene, followed by rehydration with graded alcohols (100%, 95%). A heat-induced epitope retrieval procedure was carried out by heating the tissue slides in citrate buffer (pH 6.0) at 95° C. for 10 min (31). Each tissue section was rehydrated with PBS buffer, blocked (5% non-fat dry milk in PBS+0.01% sodium azide) for 3 h at room temperature, and then incubated with specific primary Abs using manufacturer-recommended dilutions in a humidified chamber at 4° C. overnight. After extensive washing with PBS, the sections were counter-stained with AF488-conjugated anti-mouse and AF549-conjugated anti-rabbit secondary Abs (double staining) for 1 h at room temperature. The sections were washed again extensively and stained with the nuclear DNA stain DAPI for 10 min at room temperature. After washing and drying at room temperature, the slides were examined by a Flow View 1000 Laser Scanning Confocal microscope (Olympus). The MFI of a randomly selected group of confocal images was quantified using a pixel intensity measurement (NIH Image J program).
FFPE lymph node tissue sections were subjected to the antigen retrieval procedure (see immunohistochemistry method above) followed by incubation with AF488-labeled tilmanocept and staining with anti-DC-SIGN Ab.

[3] = tested on: fresh Kaposi Sarcoma (KS) tumor tissue
Protocol: as §1

Chain of DC-SIGN (CD209) (Q9NNX6 whole entry): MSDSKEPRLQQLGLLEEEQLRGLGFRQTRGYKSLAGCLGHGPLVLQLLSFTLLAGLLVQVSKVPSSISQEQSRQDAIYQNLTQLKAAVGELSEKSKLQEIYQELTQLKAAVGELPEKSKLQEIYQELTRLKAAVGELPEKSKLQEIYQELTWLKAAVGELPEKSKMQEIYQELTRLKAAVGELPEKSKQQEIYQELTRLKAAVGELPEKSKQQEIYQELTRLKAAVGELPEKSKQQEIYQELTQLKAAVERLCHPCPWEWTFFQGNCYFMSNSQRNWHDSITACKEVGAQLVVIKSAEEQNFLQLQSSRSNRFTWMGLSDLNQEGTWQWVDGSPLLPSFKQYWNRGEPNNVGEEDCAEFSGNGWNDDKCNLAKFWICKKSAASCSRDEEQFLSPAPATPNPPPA

Question: For COc1cccc2c1C(=O)c1c(O)c3c(c(O)c1C2=O)C[C@@](O)(C(=O)CO)C[C@@H]3O[C@H]1C[C@H](N)[C@H](O)[C@H](C)O1 [Docorubicin, doxorubicin], which “toxicity to CD206 expressing macrophages (Annexin levels, FIG. 17)” value [1] is on record?
Answer: no toxicity

Question: And the “apoptosis induction on MOs and in tumor tissue” value ([1]; Annexin-V, overnight)?
Answer: less effect

Question: For NNC(=O)c1ccncc1 [INH, isoniazid], which “lowest concentration at which activity against M.tb is maintained” value [2] is on record?
Answer: 0.0312 µM

Question: For “dextran 3-[(2-aminoethyl)thio]propyl 17-carboxy-10,13,16-tris(carboxymethyl)-8-oxo-4-thia-7,10,13,16-tetraazaheptadec-1-yl 3-[[2-[[1-imino-2-(D-mannopyranosylthio)ethyl]amino]ethyl]thio]propyl ether complexes [Tilmanocept]”, which “binding to cells in lymph node tissue sections” value (DC-SIGN (CD209)) is on record?
Answer: bind in clusters to a population of DC-SIGN-positive cells

Question: What about the “uptake in KS biopsy tissue culture” value [3] of the same molecule?
Answer: uptake co-localized with CD206+ macrophages
